# According to the METLIN SMRT retention time set (Domingo-Almenara et al. 2019):
# Assay: gradient 5% acetonitrile 3 min, to 50% in 2 min, to 85% in 15 min, held 3 min, 100 µL/min
# Conditions: column: Zorbax Extend-C18 2.1 x 50 mm; eluents: water / acetonitrile, 0.1% formic acid
# Summary of the method: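 Values are retention times taken from adduct peaks that software picked and an analyst inspected. The pure standards were run as mixtures of ~100 molecules on HPLC linked to a quadrupole time-of-flight mass spectrometer, in positive and negative ionization mode. A Zorbax Extend-C18 column (2.1 × 50 mm, 1.8 μm) was used at 100 μL/min with water and acetonitrile, each including 0.1% formic acid.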
row,RP-LC retention time [s],SMILES
1,602,CCOC(=O)c1cnc(SCC(=O)N2CCC(C(N)=O)CC2)nc1N
2,732,O=C(Nc1ccc2c(c1)OCO2)N1CCN(Cc2ccccc2)c2ncccc21
3,699,Cc1ccc2oc(CN3CCN(C(=O)Nc4ccccc4F)CC3)nc2c1
4,751,CCCCNC(=O)C1CCCN(c2nnc3ccc(C(F)(F)F)cn23)C1 (centres undefined)
5,901,Cc1ccc(-c2cn3c(CC(=O)N4CCc5ccccc54)csc3n2)cc1C
6,685,COc1c(C(=O)N2CCN(C3CCCCC3)CC2)sc2ccc(F)cc12
7,872,CC(C)CNC(=O)C1CCCN(c2nccn3nc(-c4ccccc4Cl)cc23)C1 (centres undefined)
8,637,Cc1ccc(S(=O)(=O)CCc2noc(C(=O)NCCCN3CCC(C)CC3)n2)cc1
9,601,O=C(NCCC1=CCCCC1)C1CCc2ncc(-c3ccsc3)n2C1 (centres undefined)
10,726,O=C(NC(c1ccccc1)c1nnc(N2CCOCC2)o1)c1ccc2c(c1)OCO2 (centres undefined)
11,624,CCOc1cc2c(cc1OCC)C1C(C(=O)NCCCN3CCCC3)c3ccccc3C(=O)N1CC2 (centres undefined)
12,758,COCC(=O)N(C1CCOCC1)C1CCN(S(=O)(=O)c2cccc(F)c2)CC1
13,653,O=C([C@H]1C[C@@H](F)CN1C(=O)Nc1cccc(Cl)c1)N1CCOCC1
14,661,CC1CCCN(CCCNC(=O)c2cc(S(=O)(=O)N3CCCCC3)ccc2Cl)C1 (centres undefined)
15,751,CCNC(=O)N1CC(c2nc(-c3ccc(F)cc3)no2)C2(CCOCC2)C1 (centres undefined)
16,732,O=C(CN1C(=O)C2CCCCN2c2ccc(C(=O)N3CCCC3)cc21)NC1CCCC1 (centres undefined)
17,642,Cc1cc(C)n(-c2ccc(N3CCC(C(=O)NCc4ccc5c(c4)OCO5)CC3)nn2)n1
18,966,COc1ccc(N2CCN(c3cc(SCC(=O)Nc4ccc(C)cc4)ncn3)CC2)cc1
19,724,COc1ccc(C2Cn3cnc(C(=O)N4CCC(C(=O)NCC(C)C)CC4)c3CO2)cc1 (centres undefined)
20,657,CC(C)CCNC(=O)NCCn1nnc2cc(C(=O)N3CCCC3)ccc21
21,826,O=C(CCn1nnc2cc(-c3noc(COc4ccccc4)n3)ccc21)N1CCOCC1
22,943,O=C(NC1CCCCCC1)c1ccc(-c2ccsc2)nc1
23,1140,Cc1ccc(NC(=O)Cn2nc(N3CCC(C)CC3)c3ccccc3c2=O)cc1

row,RP-LC retention time [s],SMILES
1,614,Cc1nc2cccnc2n1CC1CCCN(C(=O)Nc2ccc3c(c2)OCCO3)C1 (centres undefined)
2,778,CCOC(=O)c1c(C)oc2nc(C)nc(NCCCN3CCN(c4cccc(C)c4)C(C)C3)c12 (centres undefined)
3,598,CCN(CC)C(=O)c1ccc2c(c1)N(CC(=O)N1CCN(c3ccccn3)CC1)C(=O)CS2
4,528,O=C(NC1CC1)[C@@H]1C[C@H](Oc2cccnc2)CN1C(=O)C1CC1
5,620,O=C(CN1CCCC(COCc2ccccc2)C1)N1CCN(c2ccccc2)CC1 (centres undefined)
6,758,Cc1cccc(N2CCN(S(=O)(=O)c3cc4n(c3)CCCNC4=O)CC2)c1
7,883,COc1ccc(C2C(=O)N(C3CCC(C)CC3)CC(=O)N2Cc2ccco2)cc1OC (centres undefined)
8,683,Cc1ccc(S(=O)(=O)N2CCC(CN3CCCC(C)C3)CC2)cc1Cl (centres undefined)
9,866,O=C(NC1CCCCC1)C1CCCN(S(=O)(=O)c2c[nH]c(C(=O)N3CCCCCC3)c2)C1 (centres undefined)
10,687,Cc1ccc2c(c1)N(C(=O)CSc1ccc(N3CCCC(C(=O)NC4CC4)C3)nn1)CCO2 (centres undefined)
11,652,O=C(O)CNC(=O)C1CCN(S(=O)(=O)c2ccc(F)cc2)CC1
12,566,CC(=O)N1CCc2cc(N3CC(C(=O)N4CCN(c5ccccn5)CC4)CC3=O)ccc21 (centres undefined)
13,852,Cc1ccc(NC(=O)CSc2nc(N3CCCCC3)nc3ccccc23)cc1Cl
14,592,O=C(CSc1ccc2nnc(-c3cccnc3)n2n1)NC1CCCCC1
15,871,Cc1cc(Cl)ccc1NC(=O)C1CCN(C(=O)c2ncn3c2COC(c2ccc(F)cc2)C3)CC1 (centres undefined)
16,663,O=C(CN1C(=O)C(C(=O)N2CCCCCC2)Sc2ccccc21)N1CCN(c2ccccc2)CC1 (centres undefined)
17,564,C=CCN1CCN(C(=O)c2ccc3c(c2)Sc2ncccc2C(=O)N3CC)CC1
18,695,COc1ccc(NC(=O)CSc2nc(N3CCCCC3)nc3ccccc23)cc1
19,963,CCc1ccc(NC(=O)C2CCN(S(=O)(=O)c3ccc4c(c3)NC(=O)C(CC)O4)CC2)cc1 (centres undefined)
20,882,COc1ccc(-c2cc3n(n2)CCCN(S(=O)(=O)c2ccc(C(C)=O)cc2)C3)cc1
21,842,CCN1C(=O)COc2ccc(-c3noc(C4CC(=O)N(c5ccc(OC)cc5)C4)n3)cc21 (centres undefined)
22,1060,COc1ccc(N2CCN(c3ccc4cc(S(=O)(=O)N5CCC(C)CC5)ccc4n3)CC2)cc1
23,572,O=C(CN1C(=O)COc2ccc(C(=O)N3CCN(c4ccccn4)CC3)cc21)N1CCCC1

# Continued, molecule first:
row,SMILES,RP-LC retention time [s]
1,CC(=O)Nc1nnc(SCc2cc(=O)c(OC(=O)c3ccccc3Cl)co2)s1,699
2,COc1ccc(OC)c(S(=O)(=O)N2[C@H]3CC[C@@H]2c2cnc(C)nc2C3)c1,703
3,O=C(c1cc2occc2c(Nc2ccc(Cl)cc2)n1)N1CCN(C(=O)c2ccco2)CC1,861
4,CC(C)CNC(=O)N1CC(n2cc(C(=O)N(C)C)nn2)C1,609
5,O=C(Cc1c[nH]c2ncccc12)NCc1cccc(Br)c1,647
6,CCc1nccn1Cc1nc(-c2cccc(OC)c2OC)no1,605
7,O=C(CCc1csc(NS(=O)(=O)c2ccccc2)n1)Nc1nc2ccccc2s1,730
8,Fc1ccccc1-c1noc(N2CCCCC2)n1,982
9,CCc1nc2cc(-c3noc(-c4cc(OC)cc(OC)c4)n3)ccc2o1,1210
10,CCOc1ccc(-c2[nH]ncc2CNS(=O)(=O)Cc2c(F)cccc2Cl)cc1,882
11,CCOc1ccccc1NC(=O)Cn1c(=O)n(-c2ccccc2)c(=O)c2c1cc(C)n2C,909
12,CCn1ncn2cc(S(=O)(=O)NC(C)c3ccccc3)cc2c1=O (centres undefined),838
13,COc1cccc(-c2nnc(Cc3nc(-c4ccc5c(c4)OCO5)no3)o2)c1,977
14,COc1cccc(C2CC(c3cccs3)=NN2C(=O)C(OC)c2ccccc2)c1O (centres undefined),937
15,O=S(=O)(CCCOc1ccc(F)cc1)NCc1ccccn1,645
16,O=C(c1sc2cccc(F)c2c1Cl)N1CCN(c2ncccn2)CC1,893
17,CC(C)n1cnc2cc(CNC(=O)c3ccc(F)cc3Cl)ccc21,619
18,CCc1nc2c(NC(=O)c3ccccc3Br)cccn2n1,773
19,Cc1ccc(Cc2nc(-c3ccc4oc(C)nc4c3)no2)cc1,1070
20,CC(C)CCNC(=O)N1CCC(c2cc(N)on2)CC1,659
21,N#CC[C@@H](C1CCCC1)n1cc(-c2ncnc3[nH]ccc23)cn1,689
22,Cn1nccc1-c1cccc(-c2noc(-c3cccc(C#N)c3)n2)c1,1030

row,SMILES,RP-LC retention time [s]
1,O=C(COc1ccc(F)cc1)Nc1ccccc1NC(=O)c1ccccc1Cl,853
2,CN1C(=O)C(CC(=O)Nc2cccnc2)=C2CCCCC21 (centres undefined),564
3,CCn1cc(-c2nc(CC(=O)Nc3ccccc3C)cs2)c2cccnc21,980
4,CC(C)NC(=O)N1CCC(CCOc2ccccc2F)C1 (centres undefined),853
5,Cc1ccn2c(NC(=O)COc3ccc(Cl)cc3Cl)c(-c3ccc(F)cc3)nc2c1,804
6,COCCN1C(=O)[C@H]2CN(Cc3cccnc3)C[C@H]2C1=O,528
7,OC1(c2ccccn2)CCOC2(CCN(Cc3cccc(Cl)c3F)CC2)C1 (centres undefined),576
8,O=C(c1ccccc1Sc1nccnc1Oc1ccccc1)N1CCOCC1,859
9,O=C(O)c1ccc2c(c1)nc(Nc1cccc(Cl)c1)c1ccncc12,845
10,Cc1oc(C(C)C)nc1C(=O)NCc1ccncc1,590
11,COc1ccc(CNC(=O)C2(C)CCN(C(=O)Nc3ccc(F)cc3)CC2)cc1,761
12,COc1ccc2[nH]cc(CCN3CC(C(=O)Nc4nnc(C(F)(F)F)s4)CC3=O)c2c1 (centres undefined),780
13,CCOC(=O)N1CCN(C(=O)Cc2c(C)nn(-c3nc(-c4ccccc4)cs3)c2C)CC1,998
14,CCCN(C(=O)c1ccc(C)cc1)c1nc(-c2ccccc2)cs1,809
15,CCCNC(=O)c1cc(-c2ccc(F)cc2)cn1CC,925
16,Cc1cccc2sc(NC(=O)C3(c4cccs4)CCOCC3)nc12,987
17,O=C(c1cn(-c2cc(N3CCSCC3)ncn2)cn1)N1CCN(c2ncccn2)CC1,739
18,Cc1ccc2nc(C(=O)NCc3ccc(C)o3)cn2c1,660
19,COc1cc(-c2ccccc2)nc2ccc(NS(=O)(=O)c3ccc(NC(C)=O)cc3)cc12,653
20,Cc1noc(C)c1CN1CCN(C(=O)NCc2cccc(F)c2)CC1,599
21,CCOC(=O)c1cnc2c(C(F)(F)F)cccc2c1NCCN(C)C,614
